From patent US10028957B2, “Depot formulations” (DURECT CORPORATION, priority 2007, dated 2018)

Assay: Solvent capacity experiments (solvent added until single phase persists one week)
Assay type: physicochemical
Details: fixed PLGA/SAIB ratio, room temperature, weight percent of total final weight
[1] = Example 7, PLGA 4700 Da, 65/35, hexanediol initiated
[2] = Example 8, PLGA 6600 Da, 65/35, dodecanol initiated

Row | amount of solvent needed for a single phase solution that remained single phase for one week [1] [wt %] | amount of solvent needed for a single phase solution that remained single phase for one week [2] [wt %] | SMILES
1 | 26.44 | 19.70 | OCc1ccccc1 [BA, benzyl alcohol]
2 | 42.64 | 31.22 | C[S+](C)[O-] [DMSO, dimethylsulfoxide]
